Laboratory results as given in patent US20160106102A1, “KNOWN AND NEW HETEROCYCLIC COMPOUNDS AS PEST CONTROL AGENTS” (BAYER CROPSCIENCE AKTIENGESELLSCHAFT, priority 2013, published 2016).

System: Myzus persicae
Assay: Myzus persicae - sachet test
Assay type: in vivo
Conditions: application rate of 6 ppm in nutrient medium; 100% = all animals killed
Description: Myzus persicae—Sachet Test Solvent: 2% by vol. of N-methylpyrrolidone • 2% by vol. of diacetone alcohol To produce an appropriate active ingredient formulation, the active ingredient is mixed with the specified amounts of solvent and the concentrate is diluted to the desired concentration with water. The active ingredient formulation is added to a specific nutrient medium in the desired concentration by pipetting. This plate is sealed and combined with a further plate populated with the green peach aphid (Myzus persicae). After the desired time, the kill in % is determined. 100% means that all the animals have been killed; 0% means that no animals have been killed.

In order of falling “efficacy (kill in %)” value:
1. COC(=O)CCCn1nc(NC(=O)c2cccnc2)cc1C [Compound I-1-67]  100%
2. O=C(Nc1ccn(-c2ccc(F)cc2F)n1)c1cccnc1 [Compound I-1-85]  100%

Same assay, conditions: application rate of 30 ppm in nutrient medium; 100% = all animals killed

In order of falling “efficacy (kill in %)” value:
1. COC(=O)CCCn1nc(NC(=O)c2cccnc2)cc1C [Compound I-1-67]  100%
2. CCOC(=O)Cn1ccc(NC(=O)c2cccnc2)n1 [Compound I-1-69]  100%
3. CCn1nnc(NC(=O)c2cccnc2)n1 [Compound I-4-1]  100%
4. O=C(Nc1ccn(-c2ccc(F)cc2F)n1)c1cccnc1 [Compound I-1-85]  100%
5. O=C(Nc1ccn(Cc2ccc(Cl)cc2Cl)n1)c1cccnc1 [Compound I-1-82]  100%

System: not listed separately
Assay: log P determination by LC-MS in the acidic range
Assay type: physicochemical
Conditions: LC-MS in the acidic range
From the text: The LC-MS determination in the acidic range is effected at pH 2.7 using 0.1% aqueous formic acid and acetonitrile (contains 0.1% formic acid) as eluents, linear gradient from 10% acetonitrile to 95% acetonitrile. Alternatively, the determination is effected in the acidic range at pH 2.3 using 0.1% aqueous phosphoric acid and acetonitrile as eluents; linear gradient from 10% acetonitrile to 95% acetonitrile.

In order of rising “log P (acid)” value:
1. Cc1cc(NC(=O)c2cccnc2)nn1CC(=O)O [Compound I-1-115]  0.09
2. Cc1ccnc(Cn2nc(NC(=O)c3ccnnc3)cc2C)n1 [Compound I-1-253]  0.88
3. Cc1cc(NC(=O)c2ccnnc2)nn1Cn1cccn1 [Compound I-1-240]  0.91
4. CCCNS(=O)(=O)n1nc(NC(=O)c2cccnc2)cc1C [Compound I-1-258]  1.07
5. Cn1nc(NC(=O)c2cccnc2)c(Br)c1OC(F)F [Compound I-1-47]  1.13
6. Cc1cc(C)nc(Cn2nc(NC(=O)c3ccnnc3)cc2C)n1 [Compound I-1-251]  1.14
7. O=C(Nc1ccn(-c2nccs2)n1)c1cccnc1 [Compound I-1-273]  1.16
8. Cc1cc(NC(=O)c2ccnnc2)nn1Cn1nc(C2CC2)n(C2CC2)c1=O [Compound I-1-150]  1.33
9. Cc1cc(NC(=O)c2ccnnc2)nn1Cc1ncccc1Cl [Compound I-1-254]  1.33
10. N#Cc1ccccc1-n1ccc(NC(=O)c2cccnc2)n1 [Compound I-1-117]  1.42
11. COc1cc(OC)nc(Cn2nc(NC(=O)c3ccnnc3)cc2C)n1 [Compound I-1-252]  1.5
12. Cn1nc(NC(=O)c2cncc(F)c2)cc1C(F)F [Compound I-1-222]  1.51
13. Cn1nc(NC(=O)c2cncc(F)c2)c(Br)c1OC(F)F [Compound I-1-113]  1.67
14. Cc1ccc(C(=O)Nc2cc(C)n(Cc3ccc(F)cc3)n2)cn1 [Compound I-1-109]  1.76
15. Cc1cc(NC(=O)c2cccnc2)nn1-c1ccccn1 [Compound I-1-230]  2.19
16. COc1ccc(C(=O)Nc2cc(C)n(Cc3ccc(F)cc3)n2)cn1 [Compound I-1-110]  2.47
17. COc1ccc(C(=O)Nc2cc(C)n(Cc3cccc(F)c3)n2)cn1 [Compound I-1-94]  2.51
18. Cc1cc(NC(=O)c2cncc(Br)c2)nn1Cc1ccccc1F [Compound I-1-101]  2.69
19. Cc1cc(NC(=O)c2cnc(Cl)c(Cl)c2)nn1Cc1ccccc1F [Compound I-1-103]  3.28

Same assay, conditions: Table 2, compounds of the formula (I-2); acidic range pH 2.7 or pH 2.3

In order of rising “log P (acid)” value:
1. Cc1nc(NC(=O)c2cccnc2)nn1Cc1ncccn1 [Compound I-2-2]  −0.05
2. CN(C)C(=O)n1cnc(NC(=O)c2cccnc2)n1 [Compound I-2-9]  0.47
3. COc1ccnc(-n2cnc(NC(=O)c3cccnc3)n2)n1 [Compound I-2-11]  0.70
4. CCn1nc(NC(=O)c2cccnc2)nc1SC [Compound I-2-12]  0.71
5. O=C(Nc1ncn(-c2ccccc2)n1)c1cccnc1 [Compound I-2-5]  0.98
6. O=C(Nc1ncn(-c2c(Cl)cc(S(=O)(=O)C(F)(F)F)cc2Cl)n1)c1cccnc1 [Compound I-2-3]  2.02

Same assay, conditions: Table 3; HPLC on reversed-phase column (C 18), 55° C., acidic range (pH 2.7 or pH 2.3)

In order of falling “log P (acid)” value:
1. O=C(Nc1nn(-c2ccc(Cl)cc2Cl)nc1C(F)(F)F)c1cccnc1 [Compound I-3-8]  2.97
2. O=C(Nc1nn(-c2ccccc2)nc1C(F)(F)F)c1cccnc1 [Compound I-3-12]  2.44
3. Cc1nn(-c2cc(Cl)ccc2Cl)nc1NC(=O)c1cccnc1 [Compound I-3-22]  2.26
4. Cc1nn(-c2ccc(Cl)cc2Cl)nc1NC(=O)c1cccnc1 [Compound I-3-19]  2.24
5. O=C(Nc1nn(-c2ccccc2Cl)nc1Cl)c1cccnc1 [Compound I-3-13]  2.04

Same assay, conditions: Table 4; HPLC on reversed-phase column (C 18), 55° C., acidic range (pH 2.7 or pH 2.3)

In order of rising “log P (acid)” value:
1. CCOC(=O)Cn1nnc(NC(=O)c2cccnc2)n1 [Compound I-4-5]  0.71
2. O=C(Cn1nnc(NC(=O)c2cccnc2)n1)NCc1cccc2ccccc12 [Compound I-4-7]  1.71

Same assay, conditions: amines of the formula (II-1); acidic range pH 2.7 (0.1% formic acid/acetonitrile) or pH 2.3 (0.1% phosphoric acid/acetonitrile)

In order of falling “log P (acid)” value:
1. Cc1cc(N)nn1CC(=O)Cc1ccccc1Cl [II-1-58]  1.39
2. Cc1cc(N)nn1CC=C(Cl)Cl [II-1-56]  1.13
3. COc1cc(OC)nc(Cn2nc(N)cc2C)n1 [II-1-12]  0.81
4. Cc1cc(N)nn1-c1cnccn1 [II-1-6]  0.8
5. CC(C)=CCn1nc(N)cc1C [II-1-59]  0.73
6. C#CCn1nc(N)cc1C1CC1 [II-1-4]  0.63
7. Cc1cc(N)nn1Cc1ncccc1Cl [II-1-24]  0.6
8. Cc1cc(N)nn1CSc1ncccn1 [II-1-51]  0.49
9. Cc1cc(N)nn1Cc1ccncc1 [II-1-18]  0.45
10. Cc1cc(N)nn1Cc1ncccc1C#N [II-1-25]  0.21
11. CSCn1nc(N)cc1C [II-1-60]  0.14
12. Nc1ccn(C(CF)CF)n1 [II-1-7]  −0.09

In the case of Cc1cc(N)nn1Cn1c(C)nn(C)c1=O [II-1-54], the “log P (acid)” value is reported as under −0.23.

Same assay, conditions: pH 2.7, LC-MS in the acidic range; read-out: log P (acid)

In order of rising chromatographic logP:
1. Cn1nc(NC(=O)c2cncc(F)c2)cc1OC(F)F [Compound I-1-112, N-[5-(Difluoromethoxy)-1-methyl-1H-pyrazol-3-yl]-5-fluoronicotinamide]  1.56
2. Cc1cc(NC(=O)c2cccnc2)nn1C(=O)C1CC1 [Compound I-1-121, N-[1-(Cyclopropylcarbonyl)-5-methyl-1H-pyrazol-3-yl]nicotinamide]  1.65

Same assay, conditions: pH 2.7, amines of the formula (II-1); acidic range pH 2.7 (0.1% formic acid/acetonitrile) or pH 2.3 (0.1% phosphoric acid/acetonitrile); read-out: log P (acid)

Compared with Cc1cc(N)nn1Cc1ncccn1 [II-1-23, 5-Methyl-1-(pyrimidin-2-ylmethyl)-1H-pyrazole-3-amine], Nc1ccn(Cc2ncc(C(F)(F)F)cc2Cl)n1 [II-1-8, 1-{[3-Chloro-5-(trifluoromethyl)pyridin-2-yl]methyl}-1H-pyrazole-3-amine] is higher in chromatographic logP: under -0.23 for the first, 1.36 for the second.

Same assay, conditions: pH 2.7, values given in the synthesis examples and NMR lists; read-out: HPLC-MS: log P

Compared with Cc1cc(N)nn1Cc1ncccn1 [II-1-23, 5-Methyl-1-(pyrimidin-2-ylmethyl)-1H-pyrazole-3-amine], COC(=O)c1cc(C)n(Cc2ncccn2)n1 [Methyl 5-methyl-1-(pyrimidin-2-ylmethyl)-1H-pyrazole-3-carboxylate] is higher in chromatographic logP: under -0.23 for the first, 0.98 for the second.

Going from Cc1cc(N)nn1-c1ncccn1 [5-Methyl-1-(pyrimidin-2-yl)-1H-pyrazole-3-amine] to Cc1cn(Cc2ncccn2)nc1N [4-Methyl-1-(pyrimidin-2-ylmethyl)-1H-pyrazole-3-amine], the chromatographic logP falls from 0.5 to -0.22.

First: Cc1c[nH]nc1N1C(=O)c2ccccc2C1=O [2-(4-Methyl-1H-pyrazol-3-yl)-1H-isoindole-1,3(2H)-dione]
Second: O=C1c2ccccc2C(=O)N1c1cc(Br)[nH]n1 [2-(5-Bromo-1H-pyrazol-3-yl)-1H-isoindole-1,3(2H)-dione]
The chromatographic logP of the first is lower: 1.34 for the first, 1.83 for the second.

Going from CCSCn1nc([N+](=O)[O-])cc1C [1-[(Ethylsulphanyl)methyl]-5-methyl-3-nitro-1H-pyrazole] to O=[N+]([O-])c1ccn(Cc2ncc(C(F)(F)F)cc2Cl)n1 [3-Chloro-2-[(3-nitro-1H-pyrazol-1-yl)methyl]-5-(trifluoromethyl)pyridine], the chromatographic logP rises from 2.21 to 2.67.

First: Nc1ccn(Cc2ncc(C(F)(F)F)cc2Cl)n1 [II-1-8, 1-{[3-Chloro-5-(trifluoromethyl)pyridin-2-yl]methyl}-1H-pyrazole-3-amine]
Second: Cn1nc(NC(=O)c2cncc(F)c2)cc1OC(F)F [Compound I-1-112, N-[5-(Difluoromethoxy)-1-methyl-1H-pyrazol-3-yl]-5-fluoronicotinamide]
The chromatographic logP of the first is lower: 1.36 for the first, 1.56 for the second.

In the case of Cc1cc(NC(=O)c2cccnc2)nn1C(=O)C1CC1 [Compound I-1-121, N-[1-(Cyclopropylcarbonyl)-5-methyl-1H-pyrazol-3-yl]nicotinamide], the chromatographic logP is reported as 1.65.
